Test results published in patent publication US20070128217A1 (priority 2003, published 2007).

Tests used:
[1] = tested on: antibodies in sera from SARS patients (sera 1a, 1b, 2, 6, 37, 62, London, SARS-yellow, SARS-green); format: binding, human; set-up: Binding of serum 6 to linear peptides of protein X1 of SARS-CoV Urbani / Binding of serum 37 to linear peptides of protein X1 of SARS-CoV Urbani / Binding of serum 6 to looped/cyclic peptide (PEPSCAN-ELISA) / Binding of serum 37 to looped/cyclic peptide (PEPSCAN-ELISA) / Binding of serum 37 to looped/cyclic peptides of protein X1 of SARS-CoV Urbani / Binding of serum 6 to linear peptides of protein X2 / Binding of serum 37 to linear peptides of protein X2 / Binding of serum 37 to looped/cyclic peptides of protein X2 of SARS-CoV Urbani / Binding of serum 6 to linear peptides of protein M of SARS-CoV Urbani / Binding of serum 37 to linear peptides of protein M of SARS-CoV Urbani / Binding of serum 6 to looped/cyclic peptides of protein M of SARS-CoV Urbani / Binding of serum 37 to looped/cyclic peptides of protein M of SARS-CoV Urbani / Binding of serum 6 to linear peptides of protein X3 of SARS-CoV Urbani / Binding of serum 37 to linear peptides of protein X3 of SARS-CoV Urbani / Binding of serum 37 to looped/cyclic peptides of protein X3 of SARS-CoV Urbani / Binding of serum 6 to linear peptides of protein X4 of SARS-CoV Urbani / Binding of serum 37 to linear peptides of protein X4 of SARS-CoV Urbani / Binding of serum 37 to looped/cyclic peptides of protein X4 of SARS-CoV Urbani / Binding of serum 6 to linear peptides of protein X5 of SARS-CoV Urbani / Binding of serum 37 to linear peptides of protein X5 of SARS-CoV Urbani / Binding of serum 37 to looped/cyclic peptides of protein X5 of SARS-CoV Urbani / Binding of serum 6 to linear peptides of protein N of SARS-CoV Urbani / Binding of serum 37 to linear peptides of protein N of SARS-CoV Urbani / Binding of serum 6 to linear peptide (PEPSCAN-ELISA) / Binding of serum 1a to looped/cyclic peptides of protein N of SARS-CoV Urbani / Binding of serum 1b to looped/cyclic peptides of protein N of SARS-CoV Urbani / Binding of serum 2 to looped/cyclic peptides of protein N of SARS-CoV Urbani / Binding of serum 6 to looped/cyclic peptides of protein N of SARS-CoV Urbani / Binding of serum 37 to looped/cyclic peptides of protein N of SARS-CoV Urbani / Binding of serum 62 to looped/cyclic peptides of protein N of SARS-CoV Urbani / Binding of serum London to looped/cyclic peptides of protein N of SARS-CoV Urbani / Binding of serum SARS-green to looped/cyclic peptides of protein N of SARS-CoV Urbani: unit not given here
[2] = tested on: control sera (pooled serum of ten healthy LUMC hospital workers; commercial negative donor pooled serum from the Dutch bloodbank); format: binding, human; set-up: Binding of Control serum LUMC to linear peptides / Binding of Control serum Blood-bank to linear peptides / Binding of Control serum LUMC to looped peptides / Binding of Control Serum Blood-Bank to Looped peptides / Binding of Control serum LUMC to linear peptides of the protein M of SARS-CoV Urbani / Binding of Control serum Blood-bank to linear peptides of the protein M of SARS-CoV Urbani / Binding of Control serum LUMC to looped peptides of the protein M of SARS-CoV Urbani / Binding of Control Serum Blood-Bank to Looped peptides of the protein M of SARS-CoV Urbani: unit not given here
[3] = tested on: rabbit serum obtained by immunizing a rabbit with the SARS-CoV strain Frankfurt 1; format: binding; set-up: Binding of a rabbit serum to linear peptides / Binding of a rabbit serum to looped peptides / Rabbit serum linear peptides / Rabbit serum looped peptides / Binding of a rabbit serum to linear peptides of protein N of SARS-CoV Urbani (Rabbit serum linear peptides) / Binding of a rabbit serum to looped/cyclic peptides of protein N of SARS-CoV Urbani (Rabbit serum looped peptides): unit not given here
[4] = tested on: recombinant human anti-SARS-CoV antibody 03-018; format: binding; set-up: Binding of antibody 03-018 to linear peptides of the N protein of SARS-CoV Urbani / Binding of antibody 03-018 to looped/cyclic peptides of the N protein of SARS-CoV Urbani: unit not given here

Sequence | Binding of serum 1a to linear peptides of protein N of SARS-CoV Urbani [1] | Binding of serum 1a to looped/cyclic peptides of protein N of SARS-CoV Urbani [1] | Binding of serum 1b to linear peptides of protein N of SARS-CoV Urbani [1] | Binding of serum 1b to looped/cyclic peptides of protein N of SARS-CoV Urbani [1] | Binding of serum 2 to linear peptides of protein N of SARS-CoV Urbani [1] | Binding of serum 2 to looped/cyclic peptides of protein N of SARS-CoV Urbani [1] | Binding of serum 6 to linear peptides of protein N of SARS-CoV Urbani [1] | Binding of serum 6 to looped/cyclic peptides of protein N of SARS-CoV Urbani [1] | Binding of serum 37 to linear peptides of protein N of SARS-CoV Urbani [1] | Binding of serum 37 to looped/cyclic peptides of protein N of SARS-CoV Urbani [1] | Binding of serum 62 to linear peptides of protein N of SARS-CoV Urbani [1] | Binding of serum 62 to looped/cyclic peptides of protein N of SARS-CoV Urbani [1] | Binding of serum London to linear peptides of protein N of SARS-CoV Urbani [1] | Binding of serum London to looped/cyclic peptides of protein N of SARS-CoV Urbani [1] | Binding of serum SARS-green to linear peptides of protein N of SARS-CoV Urbani [1] | Binding of serum SARS-green to looped/cyclic peptides of protein N of SARS-CoV Urbani [1] | Binding of serum SARS-yellow to linear peptides of protein N of SARS-CoV Urbani [1] | Binding of serum SARS-yellow to looped/cyclic peptides of protein N of SARS-CoV Urbani [1] | Binding of a rabbit serum to linear peptides of protein N of SARS-CoV Urbani (Rabbit serum linear peptides) [3] | Binding of a rabbit serum to looped/cyclic peptides of protein N of SARS-CoV Urbani (Rabbit serum looped peptides) [3] | other results
GPTDSTDNNQNGGRN | 0.3 | 0.4 | 0.2 | 0.4 | 0.4 | 0.6 | 0.2 | 0.3 | 0.8 | 0.9 | 0.6 | 0.6 | 0.6 | 0.5 | 0.6 | 1.4 | 0.6 | 0.4 | 0.1 | 0.4 | Binding of Control Serum Blood-Bank to Looped peptides [2]: 0.6; Binding of Control serum Blood-bank to linear peptides [2]: 0.8; Binding of Control serum LUMC to linear peptides [2]: 0.7; Binding of Control serum LUMC to looped peptides [2]: 0.5; Binding of antibody 03-018 to linear peptides of the N protein of SARS-CoV Urbani [4]: 0.2; Binding of antibody 03-018 to looped/cyclic peptides of the N protein of SARS-CoV Urbani [4]: 0.2
DKKKKTDEAQPLPQR | 0.2 | 0.2 | 0.1 | 0.1 | 0.2 | 0.2 | 0.2 | 0.1 | 0.6 | 0.4 | 0.6 | 0.3 | 0.5 | 0.3 | 0.5 | 0.3 | 0.6 | 0.3 | 0.1 | 0.3 | Control Serum Blood-Bank Looped peptides [2]: 0.5; Control serum Blood-bank linear peptides [2]: 0.8; Control serum LUMC linear peptides [2]: 0.6; Control serum LUMC looped peptides [2]: 0.4; Binding of antibody 03-018 to linear peptides of the N protein of SARS-CoV Urbani [4]: 0.1; Binding of antibody 03-018 to looped/cyclic peptides of the N protein of SARS-CoV Urbani [4]: 0.2
KEELRFPRGQGVPIN | 0.2 | 0.4 | 0.1 | 0.3 | 0.3 | 0.5 | 0.2 | 0.4 | 0.7 | 0.7 | 0.6 | 0.5 | 0.5 | 0.7 | 0.5 | 0.4 | 0.5 | 0.6 | 0.1 | 0.6 | Binding of Control Serum Blood-Bank to Looped peptides [2]: 0.7; Binding of Control serum Blood-bank to linear peptides [2]: 0.8; Binding of Control serum LUMC to linear peptides [2]: 0.7; Binding of Control serum LUMC to looped peptides [2]: 0.7; Binding of antibody 03-018 to linear peptides of the N protein of SARS-CoV Urbani [4]: 0.1; Binding of antibody 03-018 to looped/cyclic peptides of the N protein of SARS-CoV Urbani [4]: 0.3
PNNNAATVLQLPQGT | 0.2 | 0.5 | 0.1 | 0.4 | 0.2 | 0.8 | 0.1 | 0.3 | 0.6 | 1.0 | 0.6 | 0.9 | 0.5 | 0.7 | 0.3 | 0.7 | 0.7 | 0.5 | 0.0 | 0.2 | Binding of Control Serum Blood-Bank to Looped peptides [2]: 0.9; Binding of Control serum Blood-bank to linear peptides [2]: 0.6; Binding of Control serum LUMC to linear peptides [2]: 0.6; Binding of Control serum LUMC to looped peptides [2]: 0.8; Binding of antibody 03-018 to linear peptides of the N protein of SARS-CoV Urbani [4]: 0.1; Binding of antibody 03-018 to looped/cyclic peptides of the N protein of SARS-CoV Urbani [4]: 0.3
